The values that follow come from PMC8941652 (European journal of medicinal chemistry, 2022).

Experiment [1] concerns Multidrug resistant Mtb strains. Kind of experiment: microbe, parasite or virus in culture. The settings on record: Mycobacterium tuberculosis. It is filed as cell-based.
Experiment [2] concerns Extensively drug resistant Mtb strains. Kind of experiment: microbe, parasite or virus in culture. It is filed as cell-based. The settings on record: for MIC: Mycobacterium tuberculosis.
Experiment [3] has as its system PAS resistant Mtb: FolC mutants. Type of experiment: cell-based, Mycobacterium tuberculosis.

≈ marks a conversion by molar mass, not a printed value.

With `CC(=O)NC[C@H]1CN(c2ccc(N3CCOCC3)c(F)c2)C(=O)O1` [Linezolid], the MIC was 0.8 to 1.4 µM (≈ 0.27 to 0.472 µg/mL) in experiment [1] and 0.9 to 50 µM (≈ 0.304 to 16.9 µg/mL) in experiment [2].

For the compound `NNC(=O)c1ccncc1` [Isoniazid], the values for the MIC in experiment [1], in experiment [2] and in experiment [3] were 0.4 to 19 µM (≈ 0.0549 to 2.61 µg/mL), 6.3 to 50 µM (≈ 0.864 to 6.86 µg/mL) and 0.3 to 0.4 µM, respectively.

For `Nc1ccc(C(=O)O)c(O)c1` [PAS, para-Aminosalicylic acid], the MIC in experiment [1] was 0.2 to 3.1 µM (≈ 0.0306 to 0.475 µg/mL); in experiment [3], 12.5 to 50 µM.

With `Nc1cc(O)c(C(=O)O)cc1F` [Compound 11, 4-Amino-5-fluoro-2-hydroxybenzoic acid], the MIC was 6.3 to 50 µM (≈ 1.08 to 8.56 µg/mL) in experiment [1] and not below 50 µM in experiment [3]. The “activity against XDR and PAS resistant strains” value in experiment [2] (most XDR and PAS resistant strains) is “largely inactive”.
